Experimental data: publication PMC9551036, “A selective and orally bioavailable VHL-recruiting PROTAC achieves SMARCA2 degradation in vivo” (Nature Communications, 2022)
Where “and” joins values, the source holds several entries; their conditions need not be identical. Identical values can stand only once. Like-named read-outs stand apart in the source and are kept apart here.

Target: SMARCA4 (Homo sapiens, UniProt P51532)
Assay: SMARCA4 capillary electrophoresis protein assay in other cell lines (HCT116, LU99, HCC-364, HCT-15, HCC4006, SK-N-AS)
Format: cell-based
Set-up: endogenous in cells; host or cells: RKO, HCT116, LU99, HCC-364, HCT-15, HCC4006, SK-N-AS
Details: for LogEC50: log10 of concentration in mol/l; for DC50: protein degradation, read-out: EC50 (the source's name); for DC50 / Bottom (best-fit value, % protein remaining) / HillSlope: four-parameter fit
Protocol: 130,000–200,000 cells were seeded in 24-well plates and incubated until settled down or overnight. Compounds were dissolved in DMSO and added to cells in indicated concentrations using a digital dispenser following an optional media change. […] For SMARCA2/4 half-life determination, 150,000 or 200,000 cells were seeded in 24-well plates. […] For SMARCA2/4 re-synthesis measurements, 200,000 cells were seeded in 24-well plates. […] Medium was removed, cells were washed with PBS and lysed with 80 µl Lysis Buffer (MSD Tris Lysis Buffer (#R60TX-2) + Halt Inhibitor Cocktail (100x) + Benzonase 0.5 µL/ml). Samples were frozen at −80 °C and thawed at room temperature before use. Samples were transferred to a V-bottom plate and insoluble debris was pelleted by centrifugation for 5 min at maximum speed. The supernatant was transferred to a fresh plate. Master Mix and Ladder were prepared according to manufacturer’s instructions for 12–230 kDa Wes Separation Module, 8 × 25 capillary cartridges, Protein Simple #SM-W004 with Anti-Rabbit Detection Module for Wes, Peggy Sue or Sally Sue, Protein Simple #DM-001. 4.8 µl lysate were mixed with 1.2 µl Master Mix to achieve a protein concentration of ~0.5 µg/µl. […] Wes plates were prepared and run according to manufacturer’s instructions. Proteins were quantified with accompanying Compass Software. SMARCA2/4 protein levels were normalised to GAPDH. […] Where applicable, curves were fitted using a 4-parametric logistic model.

Chain of SMARCA4 (P51532 whole entry): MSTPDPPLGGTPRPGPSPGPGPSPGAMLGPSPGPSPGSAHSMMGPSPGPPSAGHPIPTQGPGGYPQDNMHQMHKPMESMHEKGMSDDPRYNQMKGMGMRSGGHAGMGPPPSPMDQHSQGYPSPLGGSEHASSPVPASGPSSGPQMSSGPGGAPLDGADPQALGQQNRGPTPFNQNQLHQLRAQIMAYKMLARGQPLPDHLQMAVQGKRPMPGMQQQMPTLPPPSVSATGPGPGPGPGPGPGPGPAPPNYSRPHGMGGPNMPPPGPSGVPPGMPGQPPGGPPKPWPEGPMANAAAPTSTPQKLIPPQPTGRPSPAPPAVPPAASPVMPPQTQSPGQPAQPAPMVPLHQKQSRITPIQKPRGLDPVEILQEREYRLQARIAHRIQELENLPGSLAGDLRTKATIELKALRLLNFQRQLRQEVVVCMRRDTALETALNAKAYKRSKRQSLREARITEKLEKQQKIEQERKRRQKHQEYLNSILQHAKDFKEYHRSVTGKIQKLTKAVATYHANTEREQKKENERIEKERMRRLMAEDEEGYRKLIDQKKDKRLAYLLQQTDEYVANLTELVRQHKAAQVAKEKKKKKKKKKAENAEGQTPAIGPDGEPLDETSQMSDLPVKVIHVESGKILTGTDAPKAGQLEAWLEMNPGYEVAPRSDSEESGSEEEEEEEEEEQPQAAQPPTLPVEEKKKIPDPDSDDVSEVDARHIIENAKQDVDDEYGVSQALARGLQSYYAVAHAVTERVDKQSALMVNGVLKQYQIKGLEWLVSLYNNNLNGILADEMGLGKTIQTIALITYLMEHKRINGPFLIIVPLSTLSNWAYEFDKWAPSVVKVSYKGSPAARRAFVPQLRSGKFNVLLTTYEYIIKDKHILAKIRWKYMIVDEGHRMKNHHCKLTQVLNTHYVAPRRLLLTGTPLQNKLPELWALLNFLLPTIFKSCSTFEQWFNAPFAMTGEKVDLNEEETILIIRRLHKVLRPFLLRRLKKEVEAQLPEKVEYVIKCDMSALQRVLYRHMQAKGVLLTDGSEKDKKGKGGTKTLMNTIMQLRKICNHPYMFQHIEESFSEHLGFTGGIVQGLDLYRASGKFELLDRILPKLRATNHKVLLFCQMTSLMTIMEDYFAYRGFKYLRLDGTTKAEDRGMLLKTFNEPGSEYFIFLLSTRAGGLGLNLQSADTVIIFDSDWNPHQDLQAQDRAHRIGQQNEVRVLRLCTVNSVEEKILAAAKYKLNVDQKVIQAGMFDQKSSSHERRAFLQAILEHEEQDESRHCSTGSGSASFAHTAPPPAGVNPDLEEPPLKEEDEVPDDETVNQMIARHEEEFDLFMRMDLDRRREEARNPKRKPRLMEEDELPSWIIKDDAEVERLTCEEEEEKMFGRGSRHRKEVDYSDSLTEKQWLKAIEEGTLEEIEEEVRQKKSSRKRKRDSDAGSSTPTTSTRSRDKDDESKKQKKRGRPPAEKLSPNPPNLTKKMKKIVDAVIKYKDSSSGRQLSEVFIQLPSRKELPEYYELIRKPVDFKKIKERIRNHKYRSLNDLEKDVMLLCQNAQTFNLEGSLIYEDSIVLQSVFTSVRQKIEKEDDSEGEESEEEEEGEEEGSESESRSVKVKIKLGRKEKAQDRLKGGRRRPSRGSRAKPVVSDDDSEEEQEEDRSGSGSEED

Cc1ncsc1-c1ccc(C(CCC(C)CCN2CCC(c3ccc4c(c3)n(C3CCCC3)c3nc(=O)c5c(Br)cccc5n43)CC2)NC(=O)C2CC(O)CN2C(=O)C(NC(=O)C2(F)CC2)C(C)(C)C)cc1 (stereo not drawn) [ACBI2]
LogEC50 (HCC4006_SM4): -7.029 | DC50 (HCC4006_SM4): 93.5 nM | Bottom (best-fit value, % protein remaining) (HCC-364_SM4): 3.161% | HillSlope (HCC-364_SM4): -1.653 | % protein remaining (HCC-364_SM4, log10[concentration (mol/l)] -6): 3.167% and 1.374% and 3.983% | % protein remaining (HCC-364_SM4, log10[concentration (mol/l)] -7): 9.937% and 9.321% and 6.672% | % protein remaining (HCC-364_SM4, log10[concentration (mol/l)] -8): 73.4926% and 97.1764% and 52.0353% | % protein remaining (HCC-364_SM4, log10[concentration (mol/l)] -9): 95.3509% and 123.202% and 101.968% | % protein remaining (HCC-364_SM4, log10[concentration (mol/l)] -10): 89.9664% and 104.013% and 115.065% | LogEC50 (HCC-364_SM4): -7.78 | DC50 (HCC-364_SM4): 16.6 nM | Bottom (% protein remaining, four-parameter fit) (HCT116, SM4): 25.06% | HillSlope (protein remaining) (HCT116, SM4): -2.072 | Top (% protein remaining, four-parameter fit) (HCT116, SM4): 134.1% | % protein remaining (HCT116, SM4, conc 9.54e-12 mol/l): 111.196% and 129.494% | % protein remaining (HCT116, SM4, conc 3.81e-11 mol/l): 120.316% and 148.32% | % protein remaining (HCT116, SM4, conc 1.53e-10 mol/l): 129.784% and 140.879% | % protein remaining (HCT116, SM4, conc 6.1e-10 mol/l): 129.281% and 147.637% | % protein remaining (HCT116, SM4, conc 2.44e-9 mol/l): 120.666% and 159.63% | % protein remaining (HCT116, SM4, conc 9.77e-9 mol/l): 125.866% and 131.203% | % protein remaining (HCT116, SM4, conc 3.91e-8 mol/l): 69.9313% and 71.3683% | % protein remaining (HCT116, SM4, conc 1.56e-7 mol/l): 36.8806% and 32.4224% | % protein remaining (HCT116, SM4, conc 6.25e-7 mol/l): 24.622% and 20.2431% | % protein remaining (HCT116, SM4, conc 2.5e-6 mol/l): 26.4349% and 21.0447% | HillSlope (HCT-15_SM4): -0.3445 | % protein remaining (HCT-15_SM4, log10[concentration (mol/l)] -6): 18.6748% and 17.1977% and 14.8633% | % protein remaining (HCT-15_SM4, log10[concentration (mol/l)] -7): 73.6571% and 71.0762% and 61.1459% | % protein remaining (HCT-15_SM4, log10[concentration (mol/l)] -8): 98.6414% and 84.1205% and 64.0182% | % protein remaining (HCT-15_SM4, log10[concentration (mol/l)] -9): 109.23% and 94.5032% and 92.8527% | % protein remaining (HCT-15_SM4, log10[concentration (mol/l)] -10): 99.1975% and 103.016% | Bottom (best-fit value, % protein remaining) (LU99_SM4): 6.337% | HillSlope (LU99_SM4): -1.201 | % protein remaining (LU99_SM4, log10[concentration (mol/l)] -8): 52.7226% and 80.027% and 88.2243% and 72.2723% | % protein remaining (LU99_SM4, log10[concentration (mol/l)] -9): 95.2248% and 87.3538% and 102.946% and 96.8042% | % protein remaining (LU99_SM4, log10[concentration (mol/l)] -10): 95.6247% and 91.3% and 105.138% and 100.656% | LogEC50 (LU99_SM4): -7.559 | DC50 (LU99_SM4): 27.6 nM | Bottom (best-fit value, % protein remaining) (SK-N-AS_SM4): 7.287% | HillSlope (SK-N-AS_SM4): -0.8189 | % protein remaining (SK-N-AS_SM4, log10[concentration (mol/l)] -6): 10.7051% and 13.0346% | % protein remaining (SK-N-AS_SM4, log10[concentration (mol/l)] -8): 53.489% and 73.7834% | % protein remaining (SK-N-AS_SM4, log10[concentration (mol/l)] -9): 84.3752% and 77.8596% | % protein remaining (SK-N-AS_SM4, log10[concentration (mol/l)] -10): 91.2323% and 74.8856% | LogEC50 (SK-N-AS_SM4): -7.454 | DC50 (SK-N-AS_SM4): 35.2 nM
